Values of other authors, collected in US20120231150A1, “Digestive Enzyme Inhibitor and Methods of Use” (TATE & LYLE INGREDIENTS AMERICAS, LLC, priority 2011, published 2012).

System: postprandial blood glucose
Conditions: use to control blood sugar levels

In the case of `C[C@H]1O[C@H](O[C@H]2[C@H](O)[C@@H](O)[C@@H](O[C@H]3[C@H](O)[C@@H](O)C(O)O[C@@H]3CO)O[C@@H]2CO)[C@H](O)[C@@H](O)[C@@H]1N[C@H]1C=C(CO)[C@@H](O)[C@H](O)[C@H]1O` (stereo partly shown) [Acarbose], the side effects is given as “undesirable side effects such as gas, bloating, diarrhea”.
